Publication PMC7057948, “A genome-wide approach for identification and characterisation of metabolite-inducible systems” (Nature Communications, 2020)
Counter-ions that a name gives are not always drawn. Each block holds one compound with its values, some of them ahead of it.

What was measured:
[1] = tested on: AcoR; assay: cells; parameters: species or system Cupriavidus necator H16; RFP reporter induction by transcription factor biosensor, fluorescence normalised to cell density, relative to primary effector; conditions: 6 h; relative to primary effector, C. necator, MM; read-out: % activation
Experimental: (§1) To screen the 441 combinations of inducer and biosensor for cross-reactivity, we employed an automated platform (see Methods section). Strains of C. necator harbouring the inducible systems were grown in MM and transferred to a 96-well microtiter plate format. After the inducers had been extracellularly added, cells were cultured for 6 h before RFP fluorescence and cell density were measured. […] The remaining six inducible systems were activated by one or more metabolites other than their cognate inducers. This cross-reactivity may be the result of either structural resemblance, a metabolic relationship or a combination thereof. For example, L-phenylalanine is converted into L-tyrosine by the phenylalanine 4-monooxygenase PhhA (H16_RS18365). Therefore, activation of the L-tyrosine-inducible system by L-phenylalanine is more likely to be due to biological conversion of the added compound into the primary effector rather than direct interaction of L-phenylalanine with HpdA. However, since the difference between the two molecules lies in a singly hydroxyl-group, an induction by structural resemblance cannot be entirely ruled out. The same applies to phenylglyoxylate that activated the benzoate-inducible system. Phenylglyoxylate is converted by C. necator into benzoate via a two-step reaction with benzaldehyde as intermediate compound. During the first reaction, carbon dioxide is generated that may also explain induction of the formate-inducible system by the structurally dissimilar phenylglyoxylate. Since carbon dioxide can subsequently be converted into formate, it is rational to postulate that the FdsR/PH16_RS03165-inducible system is activated in this case by its primary inducer. In addition to phenylglyoxylate, the benzoate-inducible system was activated by extracellular supplementation with cyclohexanecarboxylate and cumate. Cyclohexanecarboxylate shares both a structural resemblance to benzoate and downstream  Fig. 6 Orthogonality of inducible systems. a Cross-reactivity of a set of 21 inducible systems and their corresponding primary inducers. The heat map illustrates induction of reporter gene expression in the presence of the metabolite (in %) relative to the induction mediated by the corresponding primary effector. Measurements were taken 6 h after supplementation with inducer at a final concentration of 5 mM. Data are mean, n = 4. Source data are provided as a Source Data file. b Fluorescence output of individual cells of C. necator carrying pEH263 measured by flow cytometry. The vector pEH263 contains the 3,4-dihydroxybenzoate- and [compound left out]-inducible systems controlling expression of rfp and egfp, respectively. Fluorescence was determined in the absence of inducer (orange), in the presence of 3,4-dihydroxybenzoate (blue), [compound left out] (green), and both 3,4-dihydroxybenzoate and [compound left out] (purple). Effector concentrations correspond to their respective Km’s and fluorescence was measured 2 h after inducer addition.

[2] = tested on: BenM; assay: cells; parameters: species or system Cupriavidus necator H16; RFP reporter induction by transcription factor biosensor, fluorescence normalised to cell density, relative to primary effector; conditions: 6 h; relative to primary effector, C. necator, MM; read-out: % activation
Experimental: as §1

[3] = molecular target: T1, AcoR (Cupriavidus necator, UniProt P28614); assay: cell-based; parameters: RFP reporter induction by transcription factor biosensor, single time-point fluorescence in LB, relative to primary effector; conditions: Escherichia coli TOP10; relative to primary effector, E. coli, LB; read-out: % activation
T1 construct: native full-length gene, divergent to operon starting at H16_RS19445; reporter plasmid pEH052 (plasmid assigned by list order)
T1 sequence (P28614 1-668): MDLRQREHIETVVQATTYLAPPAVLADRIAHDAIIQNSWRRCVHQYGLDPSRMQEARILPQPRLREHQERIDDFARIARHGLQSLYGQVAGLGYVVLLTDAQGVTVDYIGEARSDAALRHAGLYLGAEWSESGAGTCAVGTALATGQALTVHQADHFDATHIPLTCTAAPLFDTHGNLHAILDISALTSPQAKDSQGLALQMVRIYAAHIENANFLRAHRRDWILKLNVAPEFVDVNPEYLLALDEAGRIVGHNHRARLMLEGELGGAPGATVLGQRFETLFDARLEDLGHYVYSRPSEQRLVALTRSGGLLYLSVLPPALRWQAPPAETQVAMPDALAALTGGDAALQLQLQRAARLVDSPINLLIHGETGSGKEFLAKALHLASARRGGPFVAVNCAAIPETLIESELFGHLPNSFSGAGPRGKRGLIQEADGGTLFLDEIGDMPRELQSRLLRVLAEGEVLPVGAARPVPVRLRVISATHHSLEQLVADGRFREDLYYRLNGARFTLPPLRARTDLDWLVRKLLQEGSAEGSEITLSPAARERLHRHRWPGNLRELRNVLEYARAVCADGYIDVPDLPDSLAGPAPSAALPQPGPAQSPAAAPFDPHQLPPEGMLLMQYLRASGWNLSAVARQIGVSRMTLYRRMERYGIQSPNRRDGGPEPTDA
Excerpt: (§2) TRs often recognise molecules that are structurally similar to their primary effectors. For example, isopropyl β-D-1-thiogalactopyranoside is a commonly used structural analogue of allolactose, employed to control the expression of genes regulated by LacI. Here, the TR’s specificity was investigated to identify previously uncharacterised ligand–TR interactions and consequently extend the biosensor application to the detection of structurally similar or metabolically related compounds. To do so, the library of 21 native and heterologous inducible systems was screened against 46 compounds using an integrated robotic platform, as described in the previous section. […] Similarly to the former orthogonality screen (Fig. 6a), it should be noted that activation of reporter gene expression by the extracellularly added compounds likely indicates a structural resemblance to the primary ligand, a metabolic relationship or a combination thereof. To shed light on their cause of system activation, cultures of E. coli carrying the functional formate-, [compound left out]-, benzoate-, 3,4-dihydroxybenzoate-, acetoin- and β-alanine-inducible systems, active in this host organism, were evaluated for the same cross-reactivity (Supplementary Table 5).  Fig. 3 C. necator native systems mediate controllable gene expression in E. coli and P. putida. Single time-point fluorescence measurements of a, b E. coli and c, d P. putida carrying the C. necator-inducible gene expression systems composed of TR and promoter a, c or ‘promoter only’ version b, d. The plasmids harbouring the individual system– or promoter–reporter gene constructs are indicated. RFP fluorescence output was determined in the absence of inducer (light purple and light blue) and 6 h after extracellular supplementation with the corresponding primary effector to a final concentration of 5 mM (dark purple and dark blue). Data are mean ± SD, n = 3, *p < 0.05, **p < 0.01, ***p ≤ 0.001, ****p ≤ 0.0001, unpaired two-tailed t-test. Source data are provided as a Source Data file. All strains used in this study are listed in Supplementary Table 7. E. coli TOP10 (Life Technologies) was used for cloning and plasmid propagation. For single time-point fluorescence measurements and flow cytometric analyses, bacterial strains were propagated in Luria-Bertani (LB) medium. To determine the dose–responses and to evaluate inducer TR cross-reactivity, C. necator was cultivated in MM containing 1 g/L NH4Cl, 9 g/L Na2HPO4·12H2O, 1.5 g/L KH2PO4, 0.2 g/L MgSO4·7H2O, 0.02 g/L CaCl2·2H2O and 0.0012 g/L (NH4)5[Fe(C6H4O7)2] with 1 mL/L trace element solution SL7 (1.3 mL/L 25% (w/v) HCl, 0.07 g/L ZnCl2, 0.1 g/L MnCl2·4H2O, 0.062 g/L H3BO3, 0.190 g/L CoCl2·6H2O, 0.017 g/L CuCl2·2H2O, 0.024 g/L NiCl2·6H2O and 0.036 g/L Na2MoO4·2H2O) supplemented with 0.4% (w/v) sodium gluconate. If required, antibiotics were added to the growth medium at the following concentrations: 12.5 µg/mL tetracycline or 25 µg/mL chloramphenicol for E. coli, 50 µg/mL chloramphenicol for C. necator and 25 µg/mL tetracycline for P. putida. For solid media preparation, 15 g/L agar was added.

[4] = molecular target: T2, BenM (Cupriavidus necator, UniProt Q0KAA5); assay: cell-based; parameters: RFP reporter induction by transcription factor biosensor, single time-point fluorescence in LB, relative to primary effector; conditions: Escherichia coli TOP10; relative to primary effector, E. coli, LB; read-out: % activation
T2 construct: native full-length gene, divergent to operon starting at H16_RS09790; reporter plasmid pEH148 (plasmid assigned by list order)
T2 sequence (Q0KAA5 1-305): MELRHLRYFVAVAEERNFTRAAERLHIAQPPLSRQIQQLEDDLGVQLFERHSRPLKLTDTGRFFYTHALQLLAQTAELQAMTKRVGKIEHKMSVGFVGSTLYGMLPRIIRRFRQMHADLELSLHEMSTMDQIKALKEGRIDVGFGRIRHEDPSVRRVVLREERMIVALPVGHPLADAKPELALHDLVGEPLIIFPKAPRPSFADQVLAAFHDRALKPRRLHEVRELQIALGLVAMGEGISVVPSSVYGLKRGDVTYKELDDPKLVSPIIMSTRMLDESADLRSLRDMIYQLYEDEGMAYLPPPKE
Excerpt: as §2

[5] = molecular target: T3, PhhR (Cupriavidus necator, UniProt Q0K5I4); assay: RFP reporter dose-response in C. necator H16, Hill fit; assay type: cell-based; conditions: read-out: Km^b
T3 construct: native full-length gene, divergent to phhA (H16_RS18365); reporter plasmid pEH137 (plasmid assigned by list order)
T3 sequence (Q0K5I4 1-234): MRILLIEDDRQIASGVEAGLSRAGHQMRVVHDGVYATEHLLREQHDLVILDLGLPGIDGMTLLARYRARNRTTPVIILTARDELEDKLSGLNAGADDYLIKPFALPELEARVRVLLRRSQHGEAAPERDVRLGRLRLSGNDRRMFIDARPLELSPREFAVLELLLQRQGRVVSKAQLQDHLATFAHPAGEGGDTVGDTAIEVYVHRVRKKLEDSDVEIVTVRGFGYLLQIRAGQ

[6] = tested on: HpdA; assay: cells; parameters: species or system Cupriavidus necator H16; RFP reporter induction by transcription factor biosensor, fluorescence normalised to cell density, relative to primary effector; conditions: 6 h; relative to primary effector, C. necator, MM; read-out: % activation
Experimental: as §1

[7] = tested on: T4, HpdA; assay: RFP reporter dose-response in C. necator H16, Hill fit; assay type: cell-based, Cupriavidus necator; conditions: inducer concentration for half-maximal activation; extracellular inducer, minimal medium, 30 °C, 80 min; whole cells with chromosomal regulator copy; read-out: Km^b
T4 construct: native full-length regulator gene, divergent to operon starting at H16_RS24175; reporter plasmid pEH158 (plasmid assigned by list order)

[8] = molecular target: T5, PcaQ (Cupriavidus necator, UniProt Q0JYV0); assay: as above; assay type: cell-based; conditions: read-out: Km^b
T5 construct: native full-length gene, divergent to operon starting at H16_RS30145; reporter plasmid pEH161 (plasmid assigned by list order)
T5 sequence (Q0JYV0 1-317): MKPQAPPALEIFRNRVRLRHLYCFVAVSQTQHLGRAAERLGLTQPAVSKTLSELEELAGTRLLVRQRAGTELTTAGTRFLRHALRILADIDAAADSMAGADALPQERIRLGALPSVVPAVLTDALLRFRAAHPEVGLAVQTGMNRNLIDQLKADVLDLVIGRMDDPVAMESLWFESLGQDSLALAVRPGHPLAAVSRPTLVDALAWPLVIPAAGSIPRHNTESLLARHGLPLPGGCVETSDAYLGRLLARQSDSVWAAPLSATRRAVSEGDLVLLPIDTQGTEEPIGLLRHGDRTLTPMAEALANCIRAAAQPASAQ
Excerpt: RFP reporter dose-response in C. necator H16, Hill fit on PcaQ

[9] = tested on: T6, HpdR; assay: as above; assay type: cell-based, Cupriavidus necator; conditions: inducer concentration for half-maximal activation; extracellular inducer, minimal medium, 30 °C, 80 min; whole cells with chromosomal regulator copy; read-out: Km^b
T6 construct: native full-length gene, divergent to operon starting at H16_RS18295; reporter plasmid pEH010 (plasmid assigned by exclusion)
Excerpt: RFP reporter dose-response in C. necator H16, Hill fit on HpdR

[10] = tested on: HpdR; assay: cells; parameters: species or system Cupriavidus necator H16; RFP reporter induction by transcription factor biosensor, fluorescence normalised to cell density, relative to primary effector; conditions: 6 h; relative to primary effector, C. necator, MM; read-out: % activation
Experimental: as §1

[11] = tested on: OapR; assay: cells; parameters: species or system Cupriavidus necator H16; RFP reporter induction by transcription factor biosensor, fluorescence normalised to cell density, relative to primary effector; conditions: 6 h; relative to primary effector, C. necator, MM; read-out: % activation
Experimental: as §1

[12] = molecular target: T7, KynR (Cupriavidus necator, UniProt Q0K7Y0); assay: RFP reporter dose-response in C. necator H16, Hill fit; assay type: cell-based; conditions: read-out: Km^b
T7 construct: gene H16_A2813; native full-length gene, divergent to operon starting at H16_RS14030; reporter plasmid pEH136 (plasmid assigned by list order)
T7 sequence (Q0K7Y0 1-160): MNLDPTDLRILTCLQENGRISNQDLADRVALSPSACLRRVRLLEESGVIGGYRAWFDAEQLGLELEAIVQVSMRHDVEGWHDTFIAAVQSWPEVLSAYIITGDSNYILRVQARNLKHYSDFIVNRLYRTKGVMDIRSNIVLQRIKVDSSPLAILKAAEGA

[13] = molecular target: FdsR (Cupriavidus necator, UniProt Q0KDY4); assay: cell-based
Chain of FdsR (Q0KDY4 1-364): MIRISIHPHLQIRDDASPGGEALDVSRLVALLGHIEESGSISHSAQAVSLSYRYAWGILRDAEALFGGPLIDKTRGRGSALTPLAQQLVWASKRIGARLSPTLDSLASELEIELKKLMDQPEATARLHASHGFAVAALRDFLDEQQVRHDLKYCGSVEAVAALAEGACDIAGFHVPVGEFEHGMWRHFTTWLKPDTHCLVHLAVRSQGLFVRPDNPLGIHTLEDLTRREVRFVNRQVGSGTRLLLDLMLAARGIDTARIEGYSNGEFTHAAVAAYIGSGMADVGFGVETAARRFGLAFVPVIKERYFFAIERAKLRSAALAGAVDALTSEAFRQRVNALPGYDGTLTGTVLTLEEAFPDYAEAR
Excerpt: RFP reporter dose-response in C. necator H16, Hill fit on FdsR

[14] = tested on: T8, XdhR; assay: RFP reporter dose-response in C. necator H16, Hill fit; assay type: cell-based, Cupriavidus necator; conditions: inducer concentration for half-maximal activation; extracellular inducer, minimal medium, 30 °C, 80 min; whole cells with chromosomal regulator copy; read-out: Km^b
T8 construct: native full-length gene, divergent to operon starting at H16_RS05055; reporter plasmid pEH154 (plasmid assigned by list order)

- activity at 5000 µM [3]: 0%
- activity at 5000 µM [4]: 2%
Compound: CC(C)c1ccc(C(=O)O)cc1 [cumate]
- activity at 5000 µM [1]: 18%
- activity at 5000 µM [2]: 100%

- EC50 [5]: 16.9 ± 2.2 µM
Compound: N[C@@H](Cc1ccccc1)C(=O)O [compound 11, L-phenylalanine]
- activity at 5000 µM [6]: 77%

Compound: N[C@@H](Cc1ccc(O)cc1)C(=O)O [compound 13, L-tyrosine]
- EC50 [7]: 9.9 ± 2.2 µM

- EC50 [8]: 8.63 ± 0.4 µM
Compound: O=C(O)c1ccc(O)c(O)c1 [compound 16, 3,4-Dihydroxybenzoate]

- EC50 [9]: 13.2 ± 1.9 µM
Compound: O=C(O)CCO [compound 10, 3-Hydroxypropanoate]

- activity at 5000 µM [4]: 4.3%
Compound: O=C(O)C1CCCCC1 [compound 14, Cyclohexanecarboxylate]
- activity at 5000 µM [2]: 110%

Compound: C=CC(=O)O [Acrylate]
- activity at 5000 µM [10]: 113%
- activity at 5000 µM [11]: 68%

- EC50 [12]: 2.64 ± 0.18 µM
Compound: Nc1ccccc1C(=O)C[C@H](N)C(=O)O [compound 9, L-kynurenine]

Compound: O=CO [compound 2, Formate]
- EC50 [13]: 130 ± 7 µM

- EC50 [14]: 13 ± 1.4 µM
Compound: O=c1[nH]c(=O)c2[nH]cnc2[nH]1 [compound 3, Xanthine]
